# According to paper PMC7914298 (Bioorganic & medicinal chemistry, 2020):
# Like-named read-outs stand apart in the source and are kept apart here.
# What was measured:
# [1] = biological target: E. coli GroEL/ES (Escherichia coli, UniProt P0A6F5); experiment: In situ NfsB-GroEL/ES-dMDH refolding assay; assay type: biochemical; conditions: activated by E. coli NfsB
# [2] = system: NEB 5-alpha E. coli; assay type: cell-based, Escherichia coli; conditions: 12-day serial passage, duplicates
# [3] = system: resistant E. coli strains; experiment: Cross-resistance testing of resistant E. coli strains; assay type: cell-based, Escherichia coli; conditions: for Cross-resistance of 17-resistant E. coli strains (in words): strains initially made resistant to 17; for Cross-resistance of nitrofurantoin-resistant E. coli strains (in words): strains initially made resistant to nitrofurantoin; for Cross-resistance of nifuroxazide-resistant E. coli strains (in words): strains initially made resistant to nifuroxazide
# [4] = system: human FHs 74 Int small intestinal cells; experiment: Alamar Blue cell viability assay, FHs 74 Int small intestine cells; conditions: for Cytotoxicity to human cells (in words): FHs 74 Int shown, FHC colon cells similar
# [5] = biological target: T1, native MDH (malate dehydrogenase) (Sus scrofa, UniProt P00346); experiment: Native MDH enzymatic activity counter-screen; assay type: biochemical
# T1 sequence (P00346 25-338): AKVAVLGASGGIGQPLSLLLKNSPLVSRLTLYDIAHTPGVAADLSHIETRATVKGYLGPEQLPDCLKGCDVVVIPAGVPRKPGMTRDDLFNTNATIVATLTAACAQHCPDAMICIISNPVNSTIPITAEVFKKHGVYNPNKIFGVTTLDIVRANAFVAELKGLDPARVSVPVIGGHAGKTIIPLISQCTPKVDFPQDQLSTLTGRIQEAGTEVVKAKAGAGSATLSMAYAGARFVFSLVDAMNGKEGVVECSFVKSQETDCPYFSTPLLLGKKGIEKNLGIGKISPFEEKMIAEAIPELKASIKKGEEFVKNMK
# [6] = biological target: T1, native MDH (malate dehydrogenase); assay type: biochemical
# [7] = system: human FHC colon cells; experiment: Alamar Blue cell viability assay, FHC colon cells; conditions: CC50 FHC colon cells over EC50 E. coli proliferation
# [8] = system: Klebsiella pneumoniae (ATCC #13883); experiment: K. pneumoniae bacterial proliferation assay; assay type: cell-based
# [9] = system: human mitochondrial HSP60/10 chaperonin system; conditions: ref [59], [84]; cited from earlier work
# E. coli GroEL/ES, sequence (P0A6F5 2-548): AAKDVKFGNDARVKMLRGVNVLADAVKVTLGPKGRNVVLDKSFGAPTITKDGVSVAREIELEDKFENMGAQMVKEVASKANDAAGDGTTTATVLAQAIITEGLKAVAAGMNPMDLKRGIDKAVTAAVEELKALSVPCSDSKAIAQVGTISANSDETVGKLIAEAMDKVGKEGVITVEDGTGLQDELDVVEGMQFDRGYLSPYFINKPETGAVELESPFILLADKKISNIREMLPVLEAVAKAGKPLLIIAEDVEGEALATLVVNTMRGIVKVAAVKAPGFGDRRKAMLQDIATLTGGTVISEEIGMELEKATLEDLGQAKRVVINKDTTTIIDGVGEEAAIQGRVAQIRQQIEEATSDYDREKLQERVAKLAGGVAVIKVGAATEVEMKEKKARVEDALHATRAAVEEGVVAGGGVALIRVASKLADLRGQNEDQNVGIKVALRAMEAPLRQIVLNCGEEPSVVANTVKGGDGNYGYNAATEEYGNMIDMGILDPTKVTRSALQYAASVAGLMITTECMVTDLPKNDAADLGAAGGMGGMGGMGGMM
IC50 [5] [µM],IC50 [6] [µM],Compound,Time for E. coli to develop intermediate resistance [2] [days],Cytotoxicity to human cells (in words) [4],further results
> 63,> 56,O=C(N/N=C/c1ccc([N+](=O)[O-])o1)c1ccccc1 [compound 18],–,–,–
> 63,> 56,O=C(N/N=C/c1ccc([N+](=O)[O-])o1)c1ccncc1 [compound 19],–,–,–
> 63,> 56,CN(C)c1ccc(C(=O)N/N=C/c2ccc([N+](=O)[O-])o2)cc1 [compound 21],–,–,–

# The next lines start with the compound.
Compound,IC50 [5] [µM],IC50 [6] [µM],Time for E. coli to develop intermediate resistance [2] [days],Cytotoxicity to human cells (in words) [4],further results
O=C(N/N=C/c1ccc([N+](=O)[O-])o1)c1ccc(O)cc1 [Nifuroxazide],–,–,3 to 5,low to no cytotoxicity,GroEL/ES inhibition in the presence of NfsB (in words) [1]: weak to moderate; Cross-resistance of 17-resistant E. coli strains (in words) [3]: susceptible; Cross-resistance of nitrofurantoin-resistant E. coli strains (in words) [3]: still sensitive
"O=C1CN(/N=C/c2ccc([N+](=O)[O-])o2)C(=O)N1 [Nitrofurantoin, reference compound]",> 63,> 56,3 to 5,low to no cytotoxicity,"GroEL/ES inhibition in the presence of NfsB (in words) [1]: weak to moderate; Cross-resistance of 17-resistant E. coli strains (in words) [3]: susceptible to nifuroxazide, but not nitrofurantoin; Cross-resistance of nifuroxazide-resistant E. coli strains (in words) [3]: cross-resistant; SI (CC50 / EC50) Colon [7]: >146; SI (CC50 / EC50) Intestine ([4]; CC50 FHs 74 Int cells over EC50 E. coli proliferation): >146"
O=C(N/N=C/c1ccc([N+](=O)[O-])o1)c1cccs1 [compound 16],> 63,> 56,–,low to no cytotoxicity,Inhibition of K. pneumoniae (in words) [8]: moderate inhibitors of K. pneumoniae
O=C(N/N=C/c1ccc([N+](=O)[O-])o1)c1ccc(Cl)s1 [compound 17],> 63,> 56,3 to 5,low to no cytotoxicity,Inhibition of K. pneumoniae (in words) [8]: moderate inhibitors of K. pneumoniae; Cross-resistance of nifuroxazide-resistant E. coli strains (in words) [3]: cross-resistant; Cross-resistance of nitrofurantoin-resistant E. coli strains (in words) [3]: still sensitive
COc1ccc(C(=O)N/N=C/c2ccc([N+](=O)[O-])o2)cc1 [compound 20],> 63,> 56,–,low to no cytotoxicity,SI (CC50 / EC50) Colon [7]: >53
Cc1ccc(C(=O)Nc2ccc(S(=O)(=O)O)c3cc(S(=O)(=O)O)cc(S(=O)(=O)O)c23)cc1NC(=O)c1cccc(NC(=O)Nc2cccc(C(=O)Nc3cc(C(=O)Nc4ccc(S(=O)(=O)O)c5cc(S(=O)(=O)O)cc(S(=O)(=O)O)c45)ccc3C)c2)c1 [suramin],–,–,–,–,HSP60/10 inhibition (in words) [9]: potent HSP60/10 inhibitor
